From patent publication US20220273624A1, “NOVEL ANTIVIRAL THERAPIES” (NIKLOVIR AB, priority 2019, published 2022)
Where two headings read alike, the source gives them in different places.

What was measured:
Ljungan-like virus = experiment: Immunohistochemistry for LV VP1 antigen in pancreas tissue of treated DP-BB rats (Example 1); format: in vivo, rat; details: for Non-infected (number of animals, viral antigen in pancreas by IHC) / Infected (number of animals, viral antigen in pancreas by IHC): Pleconaril 100 mg/kg, Efavirenz 30 mg/kg daily from 45 to 60 days of age; for Non-infected (number of animals, viral antigen in pancreas by IHC): control 0 of 9 non-infected; for Infected (number of animals, viral antigen in pancreas by IHC): control 9 of 9 infected; for effect on clearing the infection (in words): pancreas tissue following treatment
Experimental: DP-BB rats were obtained from the breeding colony maintained at the Karolinska Institute (Solna, Sweden). The animals were housed under Specific Pathogen Free conditions in a temperature- and humidity-controlled room with 12 hour light dark cycles. They were fed R36 diet and water ad libitum. Animals of both genders were used. The overall incidence of diabetes among the DP rats used in the colony study is 100% with 60 days as the mean age of onset.
Antiviral agents (pleconaril and efavirenz) were administered to the animals in a dose of 100 mg/kg and 30 mg/kg body weight for Pleconaril and Efavirenz, respectively. Treatment was given daily using formulation containing the vehicle 0.4% (v/v) Tween 80+2% (v/v) glycerol+15% (w/v) Hydroxypropyl-beta-cyclodextrin.
Four experimental treatment groups consisted of six rats given pleconaril, six given Efavirenz, eight given a combination of both compounds, and nine given the vehicle solution and serving as a control. All four groups began treatment at 45 days of age and treatment was maintained until 60 days of age when animals were sacrificed.
Formalin fixed paraffin embedded pancreas tissue were analyzed by immunohistochemistry. The tissues were fixed in 4% formalin and embedded in paraffin as described previously with minor modifications (Shi et al., 1991), (Shi, 1997). Presence of LV specific antigen was visualized using a polyclonal recombinant LV VP1 raised in rabbits (Tolf, 2008). As control we used serum from a rabbit immunized using the same protocol but with the carrier GST protein only. Tissues from LV-infected and non-infected animals were included as controls. The specificity of the rabbit antibodies were verified by analyzing control specimens generated by mixing infected tissue culture cells with non-infected cells followed by formalin fixation and paraffin imbedding. The specificity of the reaction was also confirmed by blocking the signal with LV antigen in parallel with control antigen.
Pancreas tissue was also analysed using the PCR assay described by Donoso Mantke and co-workers (Donoso Mantke et al., 2007).

DP BB rats = details: group B, Pleconaril alone 100 mg/kg BW once daily for 30 days, previously reported (Niklasson et al., 2016), control 59 (7), cited from earlier work

Row | SMILES | Non-infected (number of animals, viral antigen in pancreas by IHC) (Ljungan-like virus) | Infected (number of animals, viral antigen in pancreas by IHC) (Ljungan-like virus) | effect on clearing the infection (in words) (Ljungan-like virus) | Mean diab onset day (SD) (DP BB rats; listed as Plec) | Mean diab onset day (SD) (DP BB rats)
1 | O=C1Nc2ccc(Cl)cc2[C@@](C#CC2CC2)(C(F)(F)F)O1 [Efavirenz, (4S)-6-chloro-4-(2-cyclopropylethynyl)-4-(trifluoromethyl)-1H-3,1-benz-oxazin-2-one] | 0 | 6 | essentially no effect |  | 
2 | Cc1cc(CCCOc2c(C)cc(-c3noc(C(F)(F)F)n3)cc2C)on1 [Pleconaril, 3-[3,5-dimethyl-4-[3-(3-methylisoxazol-5-yl)propoxy]phenyl]-5-(trifluoro-methyl)-1,2,4-oxadiazole] | 2 | 4 | only a modest effect on clearing the infection | 62 (8) day | 62 (SD 8) day
